{
  "source": "patent US8354398B2",
  "about": "“Substituted isoxazole compounds” (Bristol-Myers Squibb Company, priority 2009, dated 2013)",
  "key": {"[1]": {"tested_on": "adjuvant induced arthritis (paw swelling)", "test": "Rat Adjuvant Induced Arthritis Assay (AA)", "type": "in vivo, Lewis rats", "conditions": "for Paw Swelling (mL) on Day 20, Mean: male Lewis rats, vehicle mean 1.53", "description": "Male Lewis rats (150-175 g; Harlan, n=8 treatment group) were immunized at the base of the tail with […] of 10 mg/ml freshly ground Mycobacterium butyricum (Difco Laboratories) in incomplete Freund's adjuvant (sigma) Animals were dosed once daily with the test article (as a solution or suspension in the vehicle) or vehicle alone (polyethylene glycol 300, “PEG300”) starting from the day of immunization. The volumes of their hind paws were measured in a water displacement plethysmometer (Ugo Basile, Italy). The baseline paw measurements were taken before onset of the disease (between day 7 to day 10). The paw measurements were then taken three times a week until the end of the study on day 20. All procedures involving animals were reviewed and approved by the Institutional Animal Care Use Committee."}, "circulating lymphocytes [2]": {"tested_on": "circulating lymphocytes", "test": "Blood Lymphocyte Reduction Assay (BLR) in mice", "type": "in vivo", "conditions": "BALB/c mice, oral, vs vehicle group", "description": "(§1) Lewis rats or BALB/c mice were dosed orally with test article (as a solution or suspension in the vehicle) or vehicle alone (polyethylene glycol 300, “PEG300”). Blood was drawn at 4 hr and 24 h by retro-orbital bleeding. Blood lymphocyte counts were determined on an ADVIA® 120 Hematology Analyzer (Siemens Healthcare Diagnostics). The results were measured as a reduction in the percentage of circulating lymphocytes as compared to the vehicle treated group at the 4 hr and 24 hr measurement. The results represent the average results of all animals within each treatment group (n=3-4).\n(§2) Examples 1 and 2 were tested in the Blood Lymphocyte Reduction assay (BLR) described hereinabove and the results are shown in Table D for rats and Table E for mice."}, "S1P1 [3]": {"target": "T1, S1P1 (Homo sapiens, UniProt P21453)", "T1 sequence (P21453 whole entry)": "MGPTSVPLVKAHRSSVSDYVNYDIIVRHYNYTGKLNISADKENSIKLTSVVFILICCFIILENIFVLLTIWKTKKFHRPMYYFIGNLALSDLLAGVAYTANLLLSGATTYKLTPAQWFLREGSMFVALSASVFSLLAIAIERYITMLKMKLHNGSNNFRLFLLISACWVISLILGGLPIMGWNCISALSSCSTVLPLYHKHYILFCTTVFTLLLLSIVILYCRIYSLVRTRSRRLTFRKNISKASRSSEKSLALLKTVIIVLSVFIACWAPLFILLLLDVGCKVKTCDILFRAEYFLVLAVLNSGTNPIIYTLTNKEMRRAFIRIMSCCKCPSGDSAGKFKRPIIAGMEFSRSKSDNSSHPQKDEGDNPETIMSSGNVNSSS", "test": "S1P1 Binding Assay (33P-S1P ligand competition, membranes from CHO cells)", "design": "expressed in transfected cells; host or cells: CHO cells", "conditions": "membranes of CHO cells expressing human S1P1; 0.03 nM 33P-S1P; 60 min room temperature", "how_it_was_run": "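Membranes from CHO cells expressing human S1P1 (2 μg/well) were incubated with 0.03 nM ^33P-S1P and test compound for 60 min at room temperature. Bound radioactivity was collected on GF/B filters and counted. IC50 is the concentration reducing specific radioligand binding by 50%.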"}, "S1P3": {"target": "S1P3 (Homo sapiens, UniProt Q99500)", "sequence (Q99500 whole entry)": "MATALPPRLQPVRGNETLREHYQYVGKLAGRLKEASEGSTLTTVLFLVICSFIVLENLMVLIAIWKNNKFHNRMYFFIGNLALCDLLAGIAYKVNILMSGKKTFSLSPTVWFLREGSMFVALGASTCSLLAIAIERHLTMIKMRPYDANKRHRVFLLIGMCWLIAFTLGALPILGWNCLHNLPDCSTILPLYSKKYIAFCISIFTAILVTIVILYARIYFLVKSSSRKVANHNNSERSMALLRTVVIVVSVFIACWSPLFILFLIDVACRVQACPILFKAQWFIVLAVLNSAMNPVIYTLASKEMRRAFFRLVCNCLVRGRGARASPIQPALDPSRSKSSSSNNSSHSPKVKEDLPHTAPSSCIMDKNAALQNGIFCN", "test": "Method A: Receptor [35S] GTPγS Binding Assay, membranes from EDG3-Ga15-bla HEK293T cells", "type": "biochemical", "design": "expressed in transfected cells; host or cells: EDG3-Ga15-bla HEK293T cells", "conditions": "EDG3-Ga15-bla HEK293T cell membranes", "how_it_was_run": "(§3)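 Membranes ([…]) incubated 45 min at room temperature with 3-fold compound dilutions and 0.2 nM final [35S]GTPγS in HEPES pH 7.5 buffer containing 10 μM GDP, MgCl2, EGTA, DTT, BSA and saponin. Bound label collected by filtration and scintillation counting; EC50 taken at 50% of each compound's Ymax.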"}, "S1P1 [4]": {"target": "T1, S1P1", "test": "Method A: Receptor [35S] GTPγS Binding Assay, membranes from S1P1/CHO cells", "type": "biochemical", "design": "expressed in transfected cells; host or cells: S1P1/CHO cells", "how_it_was_run": "as §3"}, "circulating lymphocytes [5]": {"tested_on": "circulating lymphocytes", "test": "Blood Lymphocyte Reduction Assay (BLR) in rats", "type": "in vivo", "conditions": "Lewis rats, oral, vs vehicle group", "description": "as §1, §2"}},
  "data": [
    {"compound": "O=C(O)C1CN(Cc2ccc(-c3noc(-c4onc(-c5ccccc5)c4C(F)(F)F)n3)cc2)C1", "note": "[Example 1, 1-(4-(5-(3-Phenyl-4-(trifluoromethyl)isoxazol-5-yl)-1,2,4-oxadiazol-3-yl)benzyl)azetidine-3-carboxylic acid]", "values": [
      {"measurement": "disease progression as measured by paw swelling", "setting": "[1]; Lewis rat, prophylactic oral dosing", "value": "inhibits disease progression"},
      {"measurement": "Paw Swelling (mL) on Day 20, Mean", "setting": "[1]; 0.03 mg/kg once daily from day of immunization", "value": 1.39, "unit": "mL"},
      {"measurement": "Paw Swelling (mL) on Day 20, Mean", "setting": "[1]; 0.1 mg/kg once daily from day of immunization", "value": 0.55, "unit": "mL"},
      {"measurement": "Paw Swelling (mL) on Day 20, Mean", "setting": "[1]; 0.5 mg/kg once daily from day of immunization", "value": 0.23, "unit": "mL"},
      {"measurement": "Paw Swelling (mL) on Day 20, Mean", "setting": "[1]; 3.0 mg/kg once daily from day of immunization", "value": 0.29, "unit": "mL"},
      {"measurement": "% reduction in lymphocytes at 4 hr.", "setting": "circulating lymphocytes [2]; 0.001 mg/kg", "value": 12, "unit": "%"},
      {"measurement": "% reduction in lymphocytes at 24 hr.", "setting": "circulating lymphocytes [2]; 0.001 mg/kg", "value": 31, "unit": "%"},
      {"measurement": "% reduction in lymphocytes at 4 hr.", "setting": "circulating lymphocytes [2]; 0.01 mg/kg", "value": 32, "unit": "%"},
      {"measurement": "% reduction in lymphocytes at 24 hr.", "setting": "circulating lymphocytes [2]; 0.01 mg/kg", "value": 45, "unit": "%"},
      {"measurement": "% reduction in lymphocytes at 4 hr.", "setting": "circulating lymphocytes [2]; 0.1 mg/kg", "value": 85, "unit": "%"},
      {"measurement": "% reduction in lymphocytes at 24 hr.", "setting": "circulating lymphocytes [2]; 0.1 mg/kg", "value": 89, "unit": "%"},
      {"measurement": "% reduction in lymphocytes at 4 hr.", "setting": "circulating lymphocytes [2]; 1.0 mg/kg", "value": 90, "unit": "%"},
      {"measurement": "% reduction in lymphocytes at 24 hr.", "setting": "circulating lymphocytes [2]; 1.0 mg/kg", "value": 91, "unit": "%"},
      {"measurement": "IC50", "setting": "S1P1 [3]", "value": 91, "unit": "pM"},
      {"measurement": "EC50", "setting": "S1P3", "value": 940000, "unit": "pM"},
      {"measurement": "EC50", "setting": "S1P1 [4]; Method A, S1P1/CHO cell membranes", "value": 680, "unit": "pM"},
      {"measurement": "GTPγS S1P3/S1P1 (Method A)", "setting": "S1P1 [4]; ratio of GTPγS S1P3 EC50 to GTPγS S1P1 EC50, Method A", "value": "1,400"},
      {"measurement": "% reduction in lymphocytes at 4 hr.", "setting": "circulating lymphocytes [5]; 0.03 mg/kg", "value": 75, "unit": "%"},
      {"measurement": "% reduction in lymphocytes at 24 hr.", "setting": "circulating lymphocytes [5]; 0.03 mg/kg", "value": 45, "unit": "%"},
      {"measurement": "% reduction in lymphocytes at 4 hr.", "setting": "circulating lymphocytes [5]; 0.3 mg/kg", "value": 82, "unit": "%"},
      {"measurement": "% reduction in lymphocytes at 24 hr.", "setting": "circulating lymphocytes [5]; 0.3 mg/kg", "value": 73, "unit": "%"}
    ]}
  ]
}
